The results in this text go back to patent US8158340B2, “Methods for detecting conformational changes in bioentities” (Corning Incorporated, priority 2005, dated 2012).

Counter-ions that a name gives are not always drawn.

Test [1] concerns the target T1, H.S.A. (Homo sapiens, UniProt P02768). Kind of test: Tryptic digestion of H.S.A. after chemical modification. The class given is biochemical. The settings on record: 5 minute treatment of 2,3-butanedione; FIG. 20. The source says: In this type of assay, the digestion signal can be used as a means for screening large compound libraries for modulators of digestion (i.e. inhibitors or enhancers). The digestion inhibitors could be directed against-any lytic agent including but not limited to peptidases (as in the Caspase assay), proteases, nucleases, glucuronidase, glucosidase, lipases and the like. The assay is capable of detecting small molecule inhibitors of digestion of any molecular weight size. […] The extent to which an inhibitor can prevent digestion is assayed. […] The bar in FIG. 20, labeled 2,3-butanedione represents the net tryptic digestion of H.S.A. after a 5 minute treatment of 2,3-butanedione. The chemical 2,3-butanedione is an effective chemical modifier of amino acids such as lysine or arginine and is known in the art as an effective inhibitor of trypsin digestion via target modification.

Test [2] concerns the target T1, H.S.A. The test is described as follows: Percent crosslinking of H.S.A. with glutaraldehyde in presence of denaturants. The class given is biochemical. Conditions: as the concentration of denaturing agent increased; FIGS. 7-10.
Experimental: The fractional amount of chemical crosslinking was measured by taking the ratio of added crosslinker attached to the protein relative to amount of initial protein on the sensor. Initially, protein is immobilized and washed on the Epic™ sensor and then measured for amount of immobilized protein. The protein is exposed to glutaraldehyde with a specified solution condition. The mass change that resulted from crosslinking is recorded again on the Epic™ system. The ratio of picometer change by crosslinker (due to mass increase) to mass of protein immobilized (as measured by initial change in picometer due to protein immobilization) is referred to as the fractional amount of crosslinking (% XL or % crosslinking), which is depicted in FIG. 6. This mass change by chemical crosslinking provides a “snap shot” of the conformational state accessible to cross linker.
As a protein or bioentity is denatured it should unfold and thereby increase the number of available sites for crosslinking.
For another test, the target named is T2, Calmodulin (CAM) (Homo sapiens, UniProt P0DP23).
T2 construct: purchased Upstate cell signaling solutions 14-368
The test is described as follows: Surrogate binding: calcium additions to immobilized calmodulin on Epic biosensor. The settings on record: nine additions of 200 μM calcium chloride. The source says: In this assay, the detection of macromolecular events whose mass changes are below detection due to sparingly low refractive index changes on a biosensor are consequentially assayed through surrogate associations that are then detectable by refractive index changes (i.e., any event (ion or not) which conveys a signature through association and is assayable on a biosensor).
Calmodulin (CAM) is a classic calcium binding protein. It binds four calcium ions per protein. At saturation, four ligands at a mass of 40 Daltons equals 160 Dalton is produced. This mass is expected to be below normal direct bind detection. However, upon calcium binding CAM undergoes a dramatic conformational transition. The physical changes by CAM play a crucial role in the functioning of this molecule in vivo. Fluorescent probes that sense hydrophobic transitions have been used for more than a decade. […] Calmodulin was chosen as the model system for the concept of surrogate direct binding because the binding of calcium to this protein should not be readily detectable on a biosensor (4×40 Dalton for calcium=160 Da).
CAM was ordered through Upstate cell signaling solutions (Cat #14-368). […] Yet, when a hydrophobic probe is employed (a surrogate direct bind probe), a calcium modulation interaction is detected.

The target in another test is equine cytochrome C (Equus caballus, UniProt P00004). The test is described as follows: Catalytic digestion: trypsin digestion of immobilized cytochrome C with degrading catalyst. It is filed as biochemical. The settings on record: 15 units of trypsin per well, FIG. 2. How it is done: Chem. Soc., 2004, 126:12833-12842 and tested as a degrading catalyst. On the Epic™ System, equine cytochrome C was chemically immobilized onto the EMA surface. The comparative trypsin digestion on the Epic™ system was measured. […] In these assays, 15 units of trypsin were used in each well. No titration was done for the enzyme, the cytochrome protein or the copper II porphyrin.
Sequence of equine cytochrome C (P00004 whole entry): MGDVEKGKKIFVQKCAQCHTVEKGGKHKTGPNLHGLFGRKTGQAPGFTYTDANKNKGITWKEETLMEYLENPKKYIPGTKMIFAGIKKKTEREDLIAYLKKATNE

For test [3], the target named is T1, H.S.A. The test is described as follows: Conformational mode locking: trypsin digestion of H.S.A. after glutaraldehyde crosslinking. It is filed as biochemical. The settings on record: 10% glutaraldehyde in 0.1 M phosphate pH 7. The source says: The use of covalent chemical crosslinking as a way of assaying conformational states or transitions of bioentities was investigated. H.S.A. was immobilized on an Epic™ sensor. The protein was crosslinked with glutaraldehyde under a variety of conditions (FIG. 5). Glutaraldehyde is a small molecular weight organic chemical (100 Dalton). It can undergo a variety of chemical crosslinking events with either itself or several amino acids. For this study, 10% glutaraldehyde in 0.1 M phosphate pH 7 was used. This was done to avoid the possibility of polymeric glut from forming. The amount of protein immobilized on the surface was also measured as well as the amount of chemical crosslinking and trypsin digestion. […] This effect was expected since crosslinking should affix the protein to the surface and render mass loss incapable. This finding should permit the ability to immobilize affinity capture molecules like antibodies and streptavidin and after crosslinking prevent their digestion. These crosslinked capture structures can then be used to specifically orient their antigens for antigen specific digestion.

The test system of test [4] is trypsin. The test is described as follows: Trypsin digestion of standard fluorescent substrate BZIP plus warfarin (specificity control). It is filed as biochemical. An excerpt: It is contemplated that any conformationally altered ligand-bioentity complex can be further confirmed or characterized through secondary analysis such as peptide digest mapping, deuterium exchange studies, Michaelis-Menten kinetic studies, circular dichroism, intrinsic fluorescence analysis, competition studies with fluorescence polarization assays and the like. In addition, the effects that a ligand or putative ligand may have on the digesting agent may be analyzed using a known non-binding agent or through kinetic analysis using fluorescent assays or absorbance assays. For example, rhodamine 110, bis-(CBZ-L-isoleucyl-L-prolyl-L-arginine amide), dihydrochloride (BZiPAR, Invitrogen Inc.) may be used in fluorescence assays with trypsin and a putative ligand. Similarly, Nα-benzoyl-L-arginine ethyl ester hydrochloride (BAEE) may also be used for spectrophotometric assays with trypsin and other proteases.
(§1) The data indicates several properties.

In another test the test system is rabbit IgG. The test is described as follows: Trypsin digestion of rabbit IgG plus warfarin (specificity control). The settings on record: generic protein control. The class given is biochemical.
From the text: as §1

In the next test the test system is trypsin or chymotrypsin. The test is described as follows: Conformational assay: label-independent digestion of immobilized albumins. It is filed as biochemical. The settings on record: relative to normal BSA; FIGS. 3 and 4. As for the experimental part: In this assay, it was determined whether or not a label-independent detection assay can distinguish between different albumins by digestion with either trypsin or chymotrypsin on the Epic™ system.

In test [5] the test system is trypsin. Kind of test: Comparative trypsin digestion of myoglobin, apomyoglobin and heme-inserted apomyoglobin on Epic system. It is filed as biochemical. Conditions: approximately 23 minutes; for trypsin digestion (refractive index change): 15 units of trypsin in 1× PBS, FIGS. 18 and 19. How it is done:
The heme inserted wells as well as the apoprotein and myoglobin wells were digested using 15 units of trypsin in 1× PBS. The digestion process was allowed to proceed for approximately 23 minutes with continuous monitoring of refractive index changes on the LID system. The hierarchy of digestion followed the following order; myoglobin (−250 pm)<apomyoglobin with heme (−350 pm)<apomyoglobin (−500 pm) (FIGS. 18 and 19). […] The difference between the native myoglobin and the heme inserted apomyoglobin may be a result of slight denaturation effects that were introduced in the preparation of the apomyoglobin protein.

T1 sequence (P02768 25-609): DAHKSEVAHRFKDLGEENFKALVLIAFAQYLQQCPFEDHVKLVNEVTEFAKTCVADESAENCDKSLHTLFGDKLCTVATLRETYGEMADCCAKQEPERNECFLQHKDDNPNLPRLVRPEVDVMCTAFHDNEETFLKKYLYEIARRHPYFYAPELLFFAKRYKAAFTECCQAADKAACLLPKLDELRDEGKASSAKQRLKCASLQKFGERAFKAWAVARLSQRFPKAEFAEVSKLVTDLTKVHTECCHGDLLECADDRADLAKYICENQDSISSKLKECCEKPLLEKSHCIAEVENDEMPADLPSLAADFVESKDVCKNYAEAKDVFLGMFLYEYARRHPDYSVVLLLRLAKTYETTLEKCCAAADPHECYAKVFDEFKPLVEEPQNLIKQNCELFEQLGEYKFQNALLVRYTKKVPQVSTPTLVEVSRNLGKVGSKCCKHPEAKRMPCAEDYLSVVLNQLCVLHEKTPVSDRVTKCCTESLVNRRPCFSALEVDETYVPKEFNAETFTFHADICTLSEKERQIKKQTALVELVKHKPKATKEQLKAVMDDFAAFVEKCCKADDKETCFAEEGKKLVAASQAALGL

For `CC(=O)C(C)=O` [2,3-butanedione], the “net tryptic digestion of H.S.A. after chemical modification” value on H.S.A. [1] is “digestion is effected by chemical modification”.

In the case of `[Cl-].[Cl-].[Mg+2]` [MgCl], the “percent crosslinking of H.S.A. with glutaraldehyde” value (“percent crosslinking” for short) at H.S.A. [2] is “increasing percent crosslinking”.

As for `[Cl-].[Na+]` [NaCl], the “percent crosslinking” value at H.S.A. [2] is on record as “increasing percent crosslinking”.

Turning to `NC(N)=O` [Urea], the “percent crosslinking” value on H.S.A. [2] is reported as “increasing percent crosslinking”.

Turning to `[Ca+2].[Cl-].[Cl-]` [calcium chloride], the “binding detection of calcium to CAM with surrogate probe” value at Calmodulin (CAM) (100 μM ANS hydrophobic probe present) is recorded as “binding event”. For the same molecule, the “direct bind detection of calcium to CAM” value on Calmodulin (CAM) (CAM in 1×PBS without probe, relative to blocked wells) is given as “no binding data”.

`O=C(O)c1ccc(-c2c3nc(c(-c4ccc(C(=O)O)cc4)c4ccc([nH]4)c(-c4ccc(C(=O)O)cc4)c4nc(c(-c5ccc(C(=O)O)cc5)c5ccc2[nH]5)C=C4)C=C3)cc1.[Cu+2]` [copper (II) tetra-(4-carboxyphenyl)porphyrin]: the “trypsin digestion of cytochrome C with degrading catalyst” value on equine cytochrome C was “significant enhancement of digestion”.

For `O=CCCCC=O` [glutaraldehyde], the “proteolytic (trypsin) digestion of H.S.A. after chemical crosslinking” value on H.S.A. [3] is “dramatically inhibited/attenuated”.

As for `N=C(N)N` [guanidine HCL], the “percent crosslinking” value at H.S.A. [2] was “increasing percent crosslinking”.

`CC(=O)CC(c1ccccc1)c1c(O)c2ccccc2oc1=O` (centres unmarked) [warfarin]: the “reduction in trypsin digestion rate, BZIP plus warfarin” value in the test with trypsin [4] is on record as “no such reduction in digestion rate was observed”. For the same molecule, in the test on rabbit IgG, the “reduction in trypsin digestion rate, rabbit IgG plus warfarin” value is reported as “no such reduction in digestion rate was observed”.

In the case of “acetylated BSA: acetylated bovine serum albumin immobilized on the biosensor”, the “digestion profile of immobilized albumin” value in the test with trypsin or chymotrypsin was “dramatic enhanced digestion profile”.

Regarding heme, the “reduction in digestion of apomyoglobin caused by heme insertion” value in the test with trypsin [5] (15 units of trypsin) is given as 140 picometer.

As for “methylated BSA: methylated bovine serum albumin immobilized on the biosensor”, the “digestion profile of immobilized albumin” value with trypsin or chymotrypsin is “dramatic reduction in digestion rates”.

B1: myoglobin: native horse myoglobin (protein, UniProt P68082 2-154, looked up)
Myoglobin: GLSDGEWQQVLNVWGKVEADIAGHGQEVLIRLFTGHPETLEKFDKFKHLKTEAEMKASEDLKKHGTVVLTALGGILKKKGHHEAELKPLAQSHATKHKIPIKYLEFISDAIIHVLHSKHPGDFGADAQGAMTKALELFRNDIAAKYKELGFQG
For B1, the “trypsin digestion (refractive index change)” value with trypsin [5] is reported as −250 pm.

B2: apomyoglobin with heme: apomyoglobin after heme insertion with 2 μM hemin (protein, UniProt P68082 2-154, looked up)
Myoglobin: GLSDGEWQQVLNVWGKVEADIAGHGQEVLIRLFTGHPETLEKFDKFKHLKTEAEMKASEDLKKHGTVVLTALGGILKKKGHHEAELKPLAQSHATKHKIPIKYLEFISDAIIHVLHSKHPGDFGADAQGAMTKALELFRNDIAAKYKELGFQG
modifications: heme reconstituted
notes: apomyoglobin after heme insertion with 2 μM hemin
Consider B2, for which the “trypsin digestion (refractive index change)” value in the test with trypsin [5] is on record as −350 pm.

B3: apomyoglobin: horse apomyoglobin made by acid-acetone heme removal (protein, UniProt P68082 2-154, looked up)
Myoglobin: GLSDGEWQQVLNVWGKVEADIAGHGQEVLIRLFTGHPETLEKFDKFKHLKTEAEMKASEDLKKHGTVVLTALGGILKKKGHHEAELKPLAQSHATKHKIPIKYLEFISDAIIHVLHSKHPGDFGADAQGAMTKALELFRNDIAAKYKELGFQG
modifications: heme removed
notes: horse apomyoglobin made by acid-acetone heme removal
On to B3, for which the “trypsin digestion (refractive index change)” value in the test on trypsin [5] is listed as −500 pm.
